Measured values reported in patent publication US20220047545A1 (priority 2020, published 2022).

Experiments:
[1] = target: RBD of SARS-CoV-2 spike protein binding to hACE2 receptor (Severe acute respiratory syndrome coronavirus 2, UniProt P0DTC2)
hACE2 [2] = target: T1, hACE2 (Homo sapiens, UniProt Q9BYF1); experiment: ACE2 binding assay (ACE2 Inhibitor Screening Assay Kit); parameters: purchased BPS Bioscience
[3] = system: cathepsin L expression in A549 cells; experiment: Cathepsin L expression in A549 cells (Western blot); format: cell-based, human; settings: A549 cells
Experimental: Proteins (50 μg/well) were separated on 8-16% gradient SDS-PAGE gels and transferred to a PVDF membrane. […] Images were captured with Azure™ cSeries digital imaging system (Azure Biosystems, Dublin, Calif.) with auto-exposure settings. Densitometry was performed with NIH ImageJ software.
Cathepsin L expression: Expression of cathepsin L in cells was performed using Western blot. Briefly, 48 hours prior to the analysis, A549 cells were treated with PB at 5.0, and 10 μg/ml concentrations. Next, cells were washed with 1×PBS, lysed, and processed according to procedure described below.
Western blot: […] cells were lysed with lysis buffer [RIPA buffer plus 1× Protease Inhibitor (ThermoFisher Scientific, Waltham, Mass.)]. The protein estimation was performed with Dc Protein Assay (Bio-Rad, Hercules, Calif.). A 45 μg/well of protein was separated on 8-16% gradient SDS-PAGE gels and transferred to a PVDF membrane. Detection was performed with antibodies against cathepsin L at 1:200 dilution (Santa Cruz Biotechnology, Santa Cruz, Calif.) and against β-actin at 1:1000 dilution (Cell Signaling, Danvers, Mass.).

hACE2 [4] = target: T1, hACE2; settings: literature computational study (Jena et al.); cited from earlier work
[5] = target: RBD of SARS-CoV-2 spike protein (Severe acute respiratory syndrome coronavirus 2, UniProt P0DTC2); settings: literature computational study; cited from earlier work

T1 sequence (Q9BYF1 18-805): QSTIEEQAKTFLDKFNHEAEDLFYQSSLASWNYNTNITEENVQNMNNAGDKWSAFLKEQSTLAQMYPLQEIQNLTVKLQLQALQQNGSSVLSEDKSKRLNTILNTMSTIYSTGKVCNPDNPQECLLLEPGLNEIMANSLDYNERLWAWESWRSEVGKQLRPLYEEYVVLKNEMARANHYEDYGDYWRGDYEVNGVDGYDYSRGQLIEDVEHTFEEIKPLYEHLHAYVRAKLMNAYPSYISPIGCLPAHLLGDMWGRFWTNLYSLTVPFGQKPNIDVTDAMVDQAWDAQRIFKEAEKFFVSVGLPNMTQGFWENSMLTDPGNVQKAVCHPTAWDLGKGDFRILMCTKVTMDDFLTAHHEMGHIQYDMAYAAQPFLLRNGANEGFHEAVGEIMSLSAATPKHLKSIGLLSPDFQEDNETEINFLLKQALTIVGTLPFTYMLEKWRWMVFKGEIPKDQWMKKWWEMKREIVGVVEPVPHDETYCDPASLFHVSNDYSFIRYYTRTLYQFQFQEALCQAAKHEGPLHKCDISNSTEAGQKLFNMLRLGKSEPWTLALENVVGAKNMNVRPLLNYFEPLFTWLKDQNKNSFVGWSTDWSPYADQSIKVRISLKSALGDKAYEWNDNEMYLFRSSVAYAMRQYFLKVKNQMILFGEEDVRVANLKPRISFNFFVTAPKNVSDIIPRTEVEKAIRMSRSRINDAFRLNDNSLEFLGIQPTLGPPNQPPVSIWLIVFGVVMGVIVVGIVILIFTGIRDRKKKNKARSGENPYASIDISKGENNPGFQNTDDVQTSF

Compound | Binding with RBD (% of control ± SD) [1] | further results
O=C1O[C@H]2[C@@H]3OC(=O)c4cc(O)c(O)c(O)c4-c4c(O)c(O)c5oc(=O)c6c(c(O)c(O)c7oc(=O)c4c5c76)-c4c(cc(O)c(O)c4O)C(=O)OC[C@H]3OC(O)[C@@H]2OC(=O)c2cc(O)c(O)c(O)c2-c2c1cc(O)c(O)c2O (mixture of isomers) [Punicalagin] | 32.3 ± 5.9 % of control | 
O=C(OC1Cc2c(O)cc(O)cc2OC1c1cc(O)c(O)c(O)c1)c1cc(O)c(O)c(O)c1 (single isomer, unassigned; (+)) [(+)-epigallocatechin gallate] | 87.5 ± 6.8 % of control | 
Oc1cc(O)c2c(c1)O[C@H](c1cc(O)c(O)c(O)c1)[C@@H](O)C2 [(+)-gallocatechin] | 69.5 ± 2.8 % of control | 
O=C(O[C@@H]1Cc2c(O)cc(O)cc2O[C@H]1c1ccc(O)c(O)c1)c1cc(O)c(O)c(O)c1 [(−)-catechin gallate] | 37.4 ± 4.7 % of control | 
Oc1cc(O)c2c(c1)O[C@@H](c1cc(O)c(O)c(O)c1)[C@H](O)C2 [(−)-gallocatechin] | 73.5 ± 6.7 % of control | 
C=C1CC[C@@H]2[C@](C)(CO)[C@H](O)CC[C@@]2(C)[C@@H]1C/C=C1/C(=O)OC[C@H]1O [Andrographolide] | 22.1 ± 2.5 % of control | 
O=c1cc(-c2ccc(O)cc2)oc2cc(O)cc(O)c12 [Apigenin] | 17.1 ± 4.1 % of control | 
O=c1cc(-c2ccccc2)oc2cc(O)c(O)c(O)c12 [Baicalein] | 22.5 ± 5.1 % of control | 
O=C(O)[C@H]1O[C@@H](Oc2cc3oc(-c4ccccc4)cc(=O)c3c(O)c2O)[C@H](O)[C@@H](O)[C@@H]1O [Baicalin] | 10.3 ± 2.9 % of control | enhancement of blocking the RBD binding by Formula 1 when micronutrient tested individually [1]: only minimal enhancement
COc1ccc2cc3[n+](cc2c1OC)CCc1cc2c(cc1-3)OCO2 [Berberine] | 17.3 ± 2.7 % of control | 
C=C(C)[C@@H]1CCC(C)=C[C@H]1c1c(O)cc(CCCCC)cc1O [Cannabidiol, reference compound] | 1.4 ± 0.3 % of control | 
CC(C)c1cc2c(c(O)c1O)[C@@]1(C(=O)O)CCCC(C)(C)[C@@H]1CC2 [Carnosic acid] | 27.1 ± 5.1 % of control | 
O[C@H]1[C@H](O)[C@@H](O)CN2CC[C@H](O)[C@H]12 [Castanospermine] | 8.2 ± 2.3 % of control | 
O=C(/C=C/c1ccc(O)c(O)c1)O[C@@H]1C[C@](O)(C(=O)O)C[C@@H](O)[C@H]1O [Chlorogenic acid] | 25.5 ± 2.5 % of control | 
COc1cc(/C=C/C(=O)CC(=O)/C=C/c2ccc(O)c(OC)c2)ccc1O [Curcumin] | 100 ± 0.2 % of control | concentration at which binding efficacy to ACE2 was shown (hACE2 [2]): 10 to 25 µg/mL; cathepsin L expression at protein level [3]: neither brazilin nor curcumin down-regulated cathepsin L expression; binding energy to hACE2 (hACE2 [4]): -8.9 kcal/mol; binding energy ΔG to RBD / viral spike protein [5]: -10.5 kcal/mol
C=C(C)[C@H]1CC=C(C)CC1 [D-limonene] | 27.2 ± 6.4 % of control | 
O=c1c(O)c(-c2ccc(O)c(O)c2)oc2cc(O)ccc12 [Fisetin] | 22.4 ± 1.9 % of control | 
O=C(O)c1cc(O)c(O)c(O)c1 [Gallic acid] | 18.3 ± 4.5 % of control | 
O=c1c(-c2ccc(O)cc2)coc2cc(O)cc(O)c12 [Genistein] | 22.1 ± 2.8 % of control | 
COc1ccc([C@@H]2CC(=O)c3c(O)cc(O)cc3O2)cc1O [Hesperetin] | 42.5 ± 4.6 % of control | 
COc1ccc([C@@H]2CC(=O)c3c(O)cc(O[C@@H]4O[C@H](CO[C@@H]5O[C@@H](C)[C@H](O)[C@@H](O)[C@H]5O)[C@@H](O)[C@H](O)[C@H]4O)cc3O2)cc1O [Hesperidin] | 90.3 ± 3.8 % of control | enhancement of blocking the RBD binding by Formula 1 when micronutrient tested individually [1]: only minimal enhancement
COc1c(O)cc2oc(-c3ccc(O)cc3)cc(=O)c2c1O [Hispidulin] | 20.1 ± 6.0 % of control | 
O=c1c(O)c(-c2ccc(O)cc2)oc2cc(O)cc(O)c12 [Kaemferol] | 15.6 ± 2.9 % of control | 
C[S+]([O-])CCCCN=C=S [L-sulforaphane] | 30.2 ± 3.6 % of control | 

Compound | Binding with RBD (% of control ± SD) [1] | further results
O=c1cc(-c2ccc(O)c(O)c2)oc2cc(O)cc(O)c12 [Luteolin] | 10.4 ± 4.7 % of control | enhancement of blocking the RBD binding by Formula 1 when micronutrient tested individually [1]: only minimal enhancement
O=C(O)CC(O)C(=O)O (stereo not shown) [Malic acid] | 1.2 ± 3.7 % of control | 
O=c1c(O)c(-c2ccc(O)cc2O)oc2cc(O)cc(O)c12 [Morin] | 30.5 ± 5.8 % of control | 
O=c1c(O)c(-c2cc(O)c(O)c(O)c2)oc2cc(O)cc(O)c12 [Myricetin] | 45.5 ± 5.4 % of control | 
O=C1C[C@@H](c2ccc(O)cc2)Oc2cc(O)cc(O)c21 [Naringenin] | 20 ± 5.1 % of control | 
C[C@@H]1O[C@@H](O[C@H]2[C@H](Oc3cc(O)c4c(c3)O[C@H](c3ccc(O)cc3)CC4=O)O[C@H](CO)[C@@H](O)[C@@H]2O)[C@H](O)[C@H](O)[C@H]1O [Naringin] | 23.6 ± 6.4 % of control | 
COc1cc2c(cc1OC)-c1cc3ccc(OC)c(OC)c3c[n+]1CC2 [Palmatine] | 40.4 ± 6.1 % of control | 
COc1ccc(Cc2nccc3cc(OC)c(OC)cc23)cc1OC [Papaverine, reference compound] | 1.6 ± 0.2 % of control | 
Oc1cc(O)cc(O)c1 [Phloroglucinol] | 69.5 ± 3.6 % of control | 
Oc1cc(O)c2c(c1)O[C@H](c1ccc(O)c(O)c1)[C@H](O)[C@H]2c1c(O)cc(O)c2c1O[C@H](c1ccc(O)c(O)c1)[C@H](O)C2 [Procyanidin B2] | 31.1 ± 3.6 % of control | 
Oc1cc(O)c2c(c1)O[C@H](c1ccc(O)c(O)c1)[C@@H](O)[C@@H]2c1c(O)cc(O)c2c1O[C@H](c1ccc(O)c(O)c1)[C@@H](O)C2 [Procyanidin B3] | 32.3 ± 3.7 % of control | 
COc1cc(/C=C/c2ccc(O)cc2)cc(OC)c1 [Pterostillbene] | 23.1 ± 2.8 % of control | 
O=c1c(O)c(-c2ccc(O)c(O)c2)oc2cc(O)cc(O)c12 [Quercetin] | 22.4 ± 6.5 % of control | 
O=C(/C=C/c1ccc(O)c(O)c1)O[C@H](Cc1ccc(O)c(O)c1)C(=O)O [Rosmarinic acid] | 22.5 ± 3.8 % of control | 
C[C@@H]1O[C@@H](OC[C@H]2O[C@@H](Oc3c(-c4ccc(O)c(O)c4)oc4cc(O)cc(O)c4c3=O)[C@H](O)[C@@H](O)[C@@H]2O)[C@H](O)[C@H](O)[C@H]1O [Rutin] | 20.6 ± 6.3 % of control | 
O=C(O)[C@H]1O[C@@H](Oc2cc3oc(-c4ccc(O)cc4)cc(=O)c3c(O)c2O)[C@H](O)[C@@H](O)[C@@H]1O [Scutellarin] | 8.1 ± 3.7 % of control | 
O=C(OC[C@H]1O[C@@H](OC(=O)c2cc(O)c(O)c(OC(=O)c3cc(O)c(O)c(O)c3)c2)[C@H](OC(=O)c2cc(O)c(O)c(OC(=O)c3cc(O)c(O)c(O)c3)c2)[C@@H](OC(=O)c2cc(O)c(O)c(OC(=O)c3cc(O)c(O)c(O)c3)c2)[C@@H]1OC(=O)c1cc(O)c(O)c(OC(=O)c2cc(O)c(O)c(O)c2)c1)c1cc(O)c(O)c(OC(=O)c2cc(O)c(O)c(O)c2)c1 [Tannic acid] | 79.4 ± 2.3 % of control | 
O=c1c(O)cc([C@H]2Oc3cc(O)cc(O)c3C[C@H]2O)cc2c([C@H]3Oc4cc(O)cc(O)c4C[C@H]3O)cc(O)c(O)c12 [Theaflavin] | 27.3 ± 1.4 % of control | 
Oc1ccc(/C=C/c2cc(O)cc(O)c2)cc1 [Trans-resveratrol] | 22.3 ± 2.9 % of control | 
O=c1oc2cc(O)ccc2c2ccc(O)cc12 [Urolithin A] | 31.1 ± 4.6 % of control | 
CC(=O)c1c(O)c(C)c(O)c2c1OC1=CC(=O)C(C(C)=O)C(=O)C12C (stereo not shown) [Usnic acid] | 22.0 ± 3.4 % of control | 
(−)-gallocatechin gallate | 75.4 ± 5.6 % of control | 
catechin [cathechin] |  | binding energy to hACE2 (hACE2 [4]): -7.8 kcal/mol; binding energy ΔG to RBD / viral spike protein [5]: -7.9 kcal/mol
